Data reported in patent US8748418B2, “1,4-oxazepines as BACE1 and/or BACE2 inhibitors” (Hoffmann-La Roche Inc., priority 2011, dated 2014).

Legend:
BACE1 = BACE1 (Homo sapiens (Human), UniProt P56817); assay: Cellular Aβ-lowering assay (Aβ40 ELISA in HEK293 cells expressing human APP695); assay type: cell-based; conditions: HEK293 cells stably transfected with human APP wt (APP695), Aβ40 in supernatant after 18-20 hrs
Protocol: Cellular Aβ-Lowering Assay:
Human HEK293 cells which are stably transfected with a vector expressing a cDNA of the human APP wt gene (APP695) were used to assess the potency of the compounds in a cellular assay. The cells were seeded in 96-well microtiter plates in cell culture medium (Iscove, plus 10% (v/v) fetal bovine serum, glutamine, penicillin/streptomycin) to about 80% confluence and the compounds were added at a 10× concentration in 1/10 volume of medium without FCS containing 8% DMSO (final concentration of DMSO was kept at 0.8% v/v). After 18-20 hrs incubation at 37° C. and 5% CO2 in a humidified incubator the culture supernatant was harvested for the determination of Aβ40 concentrations. 96 well ELISA plates (e.g., Nunc MaxiSorb) were coated with monoclonal antibody which specifically recognize the C-terminal end of Aβ40 (Brockhaus et al., NeuroReport 9, 1481-1486; 1998). After blocking of non-specific binding sites with e.g. 1% BSA and washing, the culture supernatants were added in suitable dilutions together with a horseradish peroxidase-coupled Aβ detection antibody (e.g., antibody 4G8, Senetek, Maryland Heights, Mo.) and incubated for 5 to 7 hrs. Subsequently the wells of the microtiter plate were washed extensively with Tris-buffered saline containing 0.05% Tween 20 and the assay was developed with tetramethylbenzidine/H2O2 in citric acid buffer. After stopping the reaction with one volume 1NH2SO4 the reaction was measured in an ELISA reader at 450 nm wavelength. The concentrations of Aβ in the culture supernatants were calculated from a standard curve obtained with known amounts of pure Aβ peptide.

BACE2 = BACE2 (Homo sapiens (Human), UniProt Q9Y5Z0); assay: Immunofluorescence Resonance Energy Transfer (FRET) assay for BACE2 inhibition; assay type: biochemical; conditions: TMEM27-based peptide substrate 5 μM, pH 4.5
Protocol: Immunofluorescence Resonance Energy Transfer (FRET) Assay for BACE2 Inhibition:
BACE2 enzyme ectodomain (derived from plasmid “pET17b-T7-hu proBACE2”) was prepared as described in Ostermann et al., “Crystal Structure of Human BACE2 in Complex with a Hydroxyethylamine Transition-state Inhibitor”, Journal of Molecular Biology 2006, 355, 249-261. The pro-enzyme was stored at 4° C. at a concentration of 70 μg/ml.
The FRET assay was performed essentially as described in Grüninger-Leitch et al., Journal of Biological Chemistry (2002) 277(7) 4687-93 (“Substrate and inhibitor profile of BACE (beta-secretase) and comparison with other mammalian aspartic proteases”). In summary, a peptide is designed that is cleaved by the protease. The peptide is labelled with dabcyl at the N terminus and Lucifer Yellow at the C-terminus, such that for an intact peptide the Lucifer Yellow fluorescence is quenched by the dabcyl. When the peptide is cut by BACE2, the quenching is removed and a fluorescent signal is generated.
The assay was performed as described in Grueninger et al. 2002 at pH 4.5 using a substrate concentration of 5 μM. A FRET peptide based on the TMEM27 sequence was devised. dabcyl-[…]-LucY (SEQ ID NO: 1).
The assay readout is the initial rate of change of fluorescence intensity giving a relative measure of BACE2 activity. Small values correspond to high inhibition and larger values to low inhibition. […] IC50 values were determined using these assay values generated for a range of inhibitor concentrations and the curve fitting software XLfit (IDBS) using the Sigmoidal Dose-Response Model.

Chain of BACE1 (P56817 46-501): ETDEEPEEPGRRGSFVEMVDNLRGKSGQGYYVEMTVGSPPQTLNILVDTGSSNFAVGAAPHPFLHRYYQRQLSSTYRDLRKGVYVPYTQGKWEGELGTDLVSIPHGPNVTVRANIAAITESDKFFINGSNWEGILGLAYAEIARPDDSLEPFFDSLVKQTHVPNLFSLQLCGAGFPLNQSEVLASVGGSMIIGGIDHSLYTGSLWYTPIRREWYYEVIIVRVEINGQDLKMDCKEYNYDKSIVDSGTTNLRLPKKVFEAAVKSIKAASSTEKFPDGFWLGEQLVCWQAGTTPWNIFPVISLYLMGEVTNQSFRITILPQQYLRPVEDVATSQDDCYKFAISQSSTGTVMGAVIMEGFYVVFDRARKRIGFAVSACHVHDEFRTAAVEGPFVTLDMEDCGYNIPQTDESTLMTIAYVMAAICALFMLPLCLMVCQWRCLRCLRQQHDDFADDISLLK
Chain of BACE2 (Q9Y5Z0 63-473): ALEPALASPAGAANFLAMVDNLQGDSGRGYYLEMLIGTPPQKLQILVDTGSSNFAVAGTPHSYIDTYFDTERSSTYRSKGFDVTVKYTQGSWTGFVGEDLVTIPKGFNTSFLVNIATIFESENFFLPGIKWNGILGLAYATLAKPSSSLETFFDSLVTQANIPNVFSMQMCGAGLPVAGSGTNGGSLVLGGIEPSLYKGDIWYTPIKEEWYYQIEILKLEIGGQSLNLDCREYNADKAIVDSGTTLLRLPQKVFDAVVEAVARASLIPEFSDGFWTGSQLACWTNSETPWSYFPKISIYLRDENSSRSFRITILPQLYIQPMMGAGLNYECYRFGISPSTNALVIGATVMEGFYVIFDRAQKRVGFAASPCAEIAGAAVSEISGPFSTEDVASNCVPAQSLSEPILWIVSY

Row | IC50 (BACE1) [nM] | IC50 (BACE2) [nM] | SMILES
1 | 12700 | 1490 | CC1(C)OCC(N)=N[C@](C)(c2cc(Nc3ccc(OCC(F)(F)F)nc3)ccc2F)C1(F)F [Example 28, (R)-6,6-Difluoro-5-{2-fluoro-5-[6-(2,2,2-trifluoro-ethoxy)-pyridin-3-ylamino]-phenyl}-5,7,7-trimethyl-2,5,6,7-tetrahydro-[1,4]oxazepin-3-ylamine]
2 | 320 | 400 | CC1(C)OCC(N)=N[C@](C)(c2cc(NC3COc4cc(Cl)ccc43)ccc2F)C1(F)F (stereo partly drawn) [Example 17, (R)-5-[5-(6-Chloro-2,3-dihydro-benzofuran-3-ylamino)-2-fluoro-phenyl]-6,6-difluoro-5,7,7-trimethyl-2,5,6,7-tetrahydro-[1,4]oxazepin-3-ylamine]
3 | 120 | 5 | CC1(C)OCC(N)=N[C@](C)(c2cc(N[C@H]3CCc4cc(C#N)cnc43)ccc2F)C1(F)F [Example 12, (S)-7-[3-((R)-3-Amino-6,6-difluoro-5,7,7-trimethyl-2,5,6,7-tetrahydro-[1,4]oxazepin-5-yl)-4-fluoro-phenylamino]-6,7-dihydro-5H-[1]pyrindine-3-carbonitrile]
4 | 5900 |  | Cc1ccc(Nc2ccc(F)c([C@@]3(C)N=C(N)COC(C)(C)C3(F)F)c2)cn1 [Example 27, (R)-6,6-Difluoro-5-[2-fluoro-5-(6-methyl-pyridin-3-ylamino)-phenyl]-5,7,7-trimethyl-2,5,6,7-tetrahydro-[1,4]oxazepin-3-ylamine]
5 | 400 | 73 | C[C@]1(c2cc(NC3CCCOC3)ccc2F)N=C(N)COC[C@@H]1F (stereo partly drawn) [Example 4, (5R,6R)-6-Fluoro-5-[2-fluoro-5-(tetrahydro-pyran-3-ylamino)-phenyl]-5-methyl-2,5,6,7-tetrahydro-[1,4]oxazepin-3-ylamine]
6 | 310 | 4160 | CC1(C)OCC(N)=N[C@](C)(c2cc(Nc3ccc(F)cc3)ccc2F)C1(F)F [Example 19, (R)-6,6-Difluoro-5-[2-fluoro-5-(4-fluoro-phenylamino)-phenyl]-5,7,7-trimethyl-2,5,6,7-tetrahydro-[1,4]oxazepin-3-ylamine]
7 | 30 | 11 | C[C@]1(c2cc(NCc3nn(C(F)F)cc3Cl)ccc2F)N=C(N)COCC1(F)F [Example 6, (R)-5-{5-[(4-Chloro-1-difluoromethyl-1H-pyrazol-3-ylmethyl)-amino]-2-fluoro-phenyl}-6,6-difluoro-5-methyl-2,5,6,7-tetrahydro-[1,4]oxazepin-3-ylamine]
8 | 370 | 1770 | CC1(C)OCC(N)=N[C@](C)(c2cc(Nc3ccc(Cl)nc3)ccc2F)C1(F)F [Example 22, (R)-5-[5-(6-Chloro-pyridin-3-ylamino)-2-fluoro-phenyl]-6,6-difluoro-5,7,7-trimethyl-2,5,6,7-tetrahydro-[1,4]oxazepin-3-ylamine]
9 | 40 | 58 | CC1(C)OCC(N)=N[C@](C)(c2cc(NC3COc4cc(Cl)cnc43)ccc2F)C1(F)F (stereo partly drawn) [Example 15, [3-((R)-3-Amino-6,6-difluoro-5,7,7-trimethyl-2,5,6,7-tetrahydro-[1,4]oxazepin-5-yl)-4-fluoro-phenyl]-(6-chloro-2,3-dihydro-furo[3,2-b]pyridin-3-yl)-amine]
10 | 240 | 530 | Cn1ccc(Nc2ccc(F)c([C@@]3(C)N=C(N)COC(C)(C)C3(F)F)c2)n1 [Example 18, (R)-6,6-Difluoro-5-[2-fluoro-5-(1-methyl-1H-pyrazol-3-ylamino)-phenyl]-5,7,7-trimethyl-2,5,6,7-tetrahydro-[1,4]oxazepin-3-ylamine]
11 | 2100 | 650 | C[C@]1(c2cc(N[C@@H]3CCc4cc(Cl)cnc43)ccc2F)N=C(N)COCC1(F)F [Example 9, [3-((R)-3-Amino-6,6-difluoro-5-methyl-2,5,6,7-tetrahydro-[1,4]oxazepin-5-yl)-4-fluoro-phenyl]-((R)-3-chloro-6,7-dihydro-5H-[1]pyrindin-7-yl)-amine]
12 | 310 | 95 | CC1(C)OCC(N)=N[C@](C)(c2cc(N[C@@H]3CCc4cc(C#N)cnc43)ccc2F)C1(F)F [Example 13, (R)-7-[3-((R)-3-Amino-6,6-difluoro-5,7,7-trimethyl-2,5,6,7-tetrahydro-[1,4]oxazepin-5-yl)-4-fluoro-phenylamino]-6,7-dihydro-5H-[1]pyrindine-3-carbonitrile]
13 | 40 | 35 | C[C@]1(c2cc(NCc3nn(C(F)F)cc3Cl)ccc2F)N=C(N)COC[C@@H]1F [Example 2, (5R,6R)-5-{5-[(4-Chloro-1-difluoromethyl-1H-pyrazol-3-ylmethyl)-amino]-2-fluoro-phenyl}-6-fluoro-5-methyl-2,5,6,7-tetrahydro-[1,4]oxazepin-3-ylamine]
14 | 120 | 133 | CC1(C)OCC(N)=N[C@](C)(c2cc(NC3CCCc4cc(C#N)cnc43)ccc2F)C1(F)F (stereo partly drawn) [Example 16, 8-[3-((R)-3-Amino-6,6-difluoro-5,7,7-trimethyl-2,5,6,7-tetrahydro-[1,4]oxazepin-5-yl)-4-fluoro-phenylamino]-5,6,7,8-tetrahydro-quinoline-3-carbonitrile]
15 | 1100 | 940 | CC1(C)OCC(N)=N[C@](C)(c2cc(Nc3cccnc3)ccc2F)C1(F)F [Example 24, (R)-6,6-Difluoro-5-[2-fluoro-5-(pyridin-3-ylamino)-phenyl]-5,7,7-trimethyl-2,5,6,7-tetrahydro-[1,4]oxazepin-3-ylamine]
16 | 440 | 1360 | CC1(C)OCC(N)=N[C@](C)(c2cc(Nc3cncc(F)c3)ccc2F)C1(F)F [Example 23, (R)-6,6-Difluoro-5-[2-fluoro-5-(5-fluoro-pyridin-3-ylamino)-phenyl]-5,7,7-trimethyl-2,5,6,7-tetrahydro-[1,4]oxazepin-3-ylamine]
17 | 700 | 910 | C[C@]1(c2cc(Nc3ccc(C#N)cc3)ccc2F)N=C(N)COCC1(F)F [Example 10, 4-[3-((R)-3-Amino-6,6-difluoro-5-methyl-2,5,6,7-tetrahydro-[1,4]oxazepin-5-yl)-4-fluoro-phenylamino]-benzonitrile]
18 | 2400 | 1480 | C[C@]1(c2cc(NC3CCOCC3)ccc2F)N=C(N)COC[C@@H]1F [Example 5, (5R,6R)-6-Fluoro-5-[2-fluoro-5-(tetrahydro-pyran-4-ylamino)-phenyl]-5-methyl-2,5,6,7-tetrahydro-[1,4]oxazepin-3-ylamine]
19 | 170 | 310 | CC[C@]1(c2cc(NCc3nn(C(F)F)cc3Cl)ccc2F)N=C(N)COCC1(F)F [Example 7, (R)-5-{5-[(4-Chloro-1-difluoromethyl-1H-pyrazol-3-ylmethyl)-amino]-2-fluoro-phenyl}-5-ethyl-6,6-difluoro-2,5,6,7-tetrahydro-[1,4]oxazepin-3-ylamine]
20 | 90 | 30 | C[C@]1(c2cc(N[C@H]3CCc4cc(Cl)cnc43)ccc2F)N=C(N)COCC1(F)F [Example 8, [3-((R)-3-Amino-6,6-difluoro-5-methyl-2,5,6,7-tetrahydro-[1,4]oxazepin-5-yl)-4-fluoro-phenyl]-((S)-3-chloro-6,7-dihydro-5H-[1]pyrindin-7-yl)-amine]
21 | 580 | 72 | C[C@]1(c2cc(NC3CCOC3)ccc2F)N=C(N)COC[C@@H]1F (stereo partly drawn) [Example 3, (5R,6R)-6-Fluoro-5-[2-fluoro-5-(tetrahydro-furan-3-ylamino)-phenyl]-5-methyl-2,5,6,7-tetrahydro-[1,4]oxazepin-3-ylamine]
22 | 14000 | 2810 | CC1(C)OCC(N)=N[C@](C)(c2cc(N[C@@H]3CCc4cc(C#N)cnc43)c(F)cc2F)C1(F)F [Example 21, (R)-7-[5-((R)-3-Amino-6,6-difluoro-5,7,7-trimethyl-2,5,6,7-tetrahydro-[1,4]oxazepin-5-yl)-2,4-difluoro-phenylamino]-6,7-dihydro-5H-[1]pyrindine-3-carbonitrile]
